Test results: patent US7517858B1, “Prodrugs of pharmaceuticals with improved bioavailability” (The Regents of the University of California, priority 1995, dated 2009)
Entries after “also recorded” stand apart in the source; their conditions may differ.

Experiments:
[1] = test system: human cytomegalovirus (HCMV); experiment: Human cytomegalovirus (HCMV) antiviral susceptibility assay (HCMV DNA hybridization in MRC-5 cells); type: cell-based; details: for IC50: HCMV-infected MRC-5 human lung fibroblasts, HCMV DNA after 5 days, mean ± SD (n); for antiviral activity compared in words: comparison with PFA / B-PFA
Method: Subconfluent MRC-5 cells in 24-well culture dishes were pretreated for 24 hours with various concentrations of drug in MEM medium containing 2% FBS and antibiotics. The media was removed and virus added at a dilution that will result in a 3-4+ cytopathic effect (CPE) in the no-drug wells in five days. This was absorbed for 1 hour at 37° C., aspirated and replaced with the drug dilutions. After five days of incubation HCMV DNA was quantified in triplicate by nucleic acid hybridization using a CMV AntiviraL Susceptibility Test Kit from Diagnostic Hybrids, Inc. (Athens, Ohio). The media was removed and cells lysed according to the manufacturer's instructions.
After absorption of the lysate, the Hybriwix™ filters were hybridized overnight at 60° C. The Hybriwix™ were washed for 30 minutes at 73° C. and counted in a gamma counter. The results are expressed as HCMV DNA as a percentage of the untreated HCMV-infected control cells.

[2] = test system: human immunodeficiency virus-1; experiment: Plaque reduction assay for HIV-1 replication in HT4-6C cells; type: cell-based; details: comparison with PFA / B-PFA / BB-PFA
Method: HT4-6C cells and plaque reduction assay, CD4-expressing HeLa cells, HT4-6C cells (Chesebro, B. and K. Wehrly (1988) J. Virol. 62:3779-3788), were obtained from Bruce Chesebro, Hamilton, Mont. The effect of antiviral compounds on HIV replication was measured by a plaque reduction assay. Briefly, monolayers of HT4-6C cells were infected with 100 to 300 PFU of virus per well in 24-well microdilution plates. Various concentrations of drug were added to the culture medium, Dulbecco's Modified Eagle Medium containing 5% fetal bovine serum and antibiotics, as noted above. After 3 days at 37° C., the monolayers were fixed with 10% formaldehyde solution in phosphate-buffered saline and stained with 0.25% crystal violet to visualize virus plaques (Larder, B. et al. (1989) Science 243:1731-1734). Antiviral activity was assessed as the percentage of control Plaques measured in drug-treated samples.

[3] = Tissue distribution 24 h after oral administration of 14C-PFA lipid prodrugs to mice; type: in vivo; details: oral gavage 20 mg/kg in liposomes, 14C radioactivity (FIG. 2)
Method: 1-O-Octadecyl-sn-glycero-3-PFA[^14C] and 1-O-octadecyl-2-O-methyl-sn-glycero-3-PFA[^14C] (30 microcuries/micromole) were dried with dioleoylphosphatidylcholine/cholesterol/drug in a molar ratio of 60/30/10 in a nitrogen stream, lyophilized overnight and isotonic sorbitol was added. After vortexing and warming, the vessel was sonicated at maximum output in a Heat Systems cup and horn sonicator for one hour. The resulting liposome preparation was filtered through a 0.2 micron filter and administered to mice by oral gavage in a dose of 20 mg/kg of the respective PFA lipid prodrugs. After 24 hours the animals were sacrificed and tissues removed, blotted dry, weighed and homogenized. Aliquots were counted and the amount of radioactivity determined. The results are expressed as nanomoles of lipid prodrug PFA[^14C] per gm tissue.

HSV-1 virus = experiment: HSV antiviral susceptibility assay (HSV DNA hybridization in MRC-5 cells); type: cell-based, human herpes simplex virus 1; details: comparison with PFA / B-PFA
Method: Subconfluent MRC-5 cells in 24-well culture dishes were inoculated by removing the media and adding HSV-1 virus at a dilution that will result in a 3-4+CPE in the no-drug well in 20-24 hours. This was absorbed for 1 hour at 37° C., aspirated and replaced with various concentrations of drugs in MEM medium containing 2% FBS and antibiotics. After approximately 24 hours of incubation, HSV DNA was quantified in triplicate by nucleic acid hybridization using a HSV Antiviral Susceptibility Test Kit from Diagnostic Hybrids, Inc. (Athens, Ohio). The media was removed and cells lysed according to the manufacturer's instructions. After absorption of the lysate, the Hybriwix™ filters were hybridized overnight at 60° C. The Hybriwix™ were washed for 30 minutes at 73° C. and counted in a gamma counter. The results are expressed as a percentage of the untreated HSV-infected control cells.

[4] = test system: Rauscher leukemia virus complex (RLV); experiment: Treatment of Rauscher leukemia virus-infected mice (spleen weight); type: in vivo; details: for effective doses (ED50): RLV-infected BALB/C mice, 21 days oral, prodrug by gavage once a day, AZT in drinking water, spleen weight day 23
Source text: 1-O-Octadecyl-sn-glycero-3-phospho-AZT was compared to free AZT in treating mice infected with Rauscher murine leukemia virus (RLV). RLV is a murine retrovirus, and RLV-infected mice are useful as a model system for evaluating therapeutic effectiveness of candidate anti-AIDS drugs against retrovirus induced disease in vivo. […] Effective antiviral agents inhibit the splenomegaly, and a reduction in organ weight correlates with the elimination of virus (Ruprecht, R., et al., Nature 323:467-469 (1986)). […] The closest practical approach to optimum administration is the intake of AZT in drinking water.
Female BALB/C mice were infected with 1×10^4 plaque-forming units (PFU) of Rauscher leukemia virus complex (RLV) on day 0. Control animals were injected with saline. Beginning on day 2, groups of the infected mice as indicated in FIG. 1 were treated with AZT at doses from about 11.0 mg/kg/day to 15.0 mg/kg/day for 21 days either by offering AZT in drinking water or by gavaging with 1-O-octadecyl-sn-glycero-3-P-AZT once a day. On day 23 post-inoculation, the mice in both treatment protocols were sacrificed, and the spleen weights of the animals were determined. The mean spleen weights, indicating relative level of virus infection, for each dose level in the two protocols, are represented in the bar graphs of FIG. 1.

SMILES | IC50 [1] [µM] | antiviral activity compared in words ([1]; HCMV) | tissue levels of drug [3] | effective doses (ED50) [4] | other results
CCCCCCCCCCCCCCCCCCOCC(COP(=O)(O)C(=O)O)(OC)OC [ODDMOP-PFA, 1-O-octadecyl-2,2-dimethoxypropane-3-phosphonoformate] | 0.22 ± 0.14 | substantially more active | – | – | FOLD INCREASE IN ACTIVITY ([1]; versus PFA, HCMV): 209 fold
CCCCCCCCCCCCCCCCCCOC[C@H](COP(=O)(O)C(=O)O)OC [MB-PFA, 1-O-octadecyl-2-O-methyl-sn-glycero-3-phosphonoformate] | – | equivalent in antiviral activity to B-PFA | higher tissue levels of drug were observed in liver, spleen, lung, brain, kidney and lymph node | – | antiviral activity compared in words [2]: significantly more active than B-PFA and BB-PFA; also recorded: more active than B-PFA to a statistically significant degree; drug levels in the small intestine [3]: lower in the small intestine; antiviral activity compared in words (HSV-1 virus): more active than B-PFA
CCCCCCCCCCCCCCCCCCOC[C@@H](O)COP(=O)(O)OC[C@H]1O[C@@H](n2cc(C)c(=O)[nH]c2=O)C[C@@H]1N=[N+]=[N-] [1-O-octadecyl-sn-glycero-3-P-AZT, 1-O-Octadecyl-sn-glycero-3-phospho-3′-azido-3′-deoxythymidine] | – | – | – | comparable | inhibition of splenomegaly, effectiveness ([4]; RLV-infected mice, once a day gavage versus free AZT in drinking water (FIG. 1)): as effective, in comparable doses, as virtually continuous free AZT administration
CCCCCCCCCCCCCCCCCCOC[C@@H](O)COP(=O)(O)C(=O)O [B-PFA, 1-O-octadecyl-sn-glycero-3-phosphonoformate] | – | – | lower levels of drug in most tissues studied including liver, spleen, jejunum and ileum | – | –
Cc1cn([C@H]2C[C@H](N=[N+]=[N-])[C@@H](CO)O2)c(=O)[nH]c1=O [AZT, 3′-azido-3′-deoxythymidine, reference compound] | – | – | – | comparable | –
CCCCCCCCCCCCCCCCCCOC[C@H](COP(=O)(O)C(=O)O)OCc1ccccc1 [BB-PFA, 1-O-octadecyl-2-O-benzyl-sn-glycero-3-phosphonoformate] | 0.54 ± 0.65 | equivalent in antiviral activity to B-PFA | – | – | –
